These results are taken from patent US5637591A, “Antimicrobial and anticollagenase activity of phenazine-5, 10-dioxide and derivatives” (Fuji ImmunoPharmaceuticals Corp., priority 1995, dated 1997).

≈ marks a conversion by molar mass, not a printed value. Like-named read-outs stand apart in the source and are kept apart here.

For assay [1], the system named is Peptostreptococcus anaerobius. Briefly: anaerobic liquid culture growth inhibition, OD 650 nm. Format: cell-based. To be noted: read-out: IC50 Peptostreptococcus anaerobius.
For assay [2], the system named is Porphyromonas gingivalis 2561. Described as above. In kind it is cell-based.
A further assay relates to Clostridium perfringens. Briefly: microbe, parasite or virus in culture. Format: cell-based. As to conditions: read-out: IC50 Clostridium perfringens.
A further assay relates to Fusobacterium nucleatum. In words: anaerobic liquid culture growth inhibition, OD 650 nm. In kind it is cell-based. As to conditions: read-out: IC50 Fusobacterium nucleatum.
Assay [3] concerns Fusobacterium necrophorum. The description is as above. Format: cell-based. To be noted: read-out: IC50 Fusobacterium necrophorum.
Assay [4] has as its system P. gingivalis strain 2561. Briefly: minimum inhibitory concentration by addition to plating medium. In kind it is cell-based. As to conditions: for MIC: Porphyromonas gingivalis, 2561, 168 h. How it is done: (§1) Solutions of the agents were tested for activity against Escherichia coli strain DH5α by a zone inhibition method, and against P. gingivalis strain 2561 by addition to plating medium to determine minimum inhibitory concentrations (M/C). For the zone inhibition study, a suspension of E. coli was spread on the surface of an agar plate. A 3 mm diameter paper disk was placed on the seeded agar surface, and 10 μl of solution of each compound formulated at 1 mg/ml was added to the disk. Plates were incubated overnight at 37° C. The radius of the zone of inhibition was measured from the center of the disk to the edge of the E. coli bacterial lawn. For determination of MIC, drug solutions were mixed with plating medium to produce a range of final drug concentrations. Media with drug were plated in the wells of 24-well plates. A drop of bacterial suspension containing 2-5×10^2 CFU P. gingivalis was placed on each well. Plates were incubated 1 week in an anaerobic chamber at 37° C.

For assay [5], the system named is Escherichia coli strain DH5α. In words: zone inhibition method on agar plate. To be noted: 10 μl of 1 mg/ml on 3 mm paper disk, overnight 37° C., radius from center of disk; for zone of inhibition at 1000 µg/mL: Escherichia coli, read-out: E. coli Clear Zone. Format: cell-based. How it is done: as §1
A further assay deals with Bacteroides levii. In words: anaerobic liquid culture growth inhibition, OD 650 nm. In kind it is cell-based. As to conditions: Porphyromonas levii, read-out: IC50 Bacteroides levii.
In assay [6] the test system is Porphyromonas gingivalis RB-22D-1. The description is as above. Format: cell-based.
The next assay deals with Bacteroides fragilis. Described as above. Format: cell-based. To be noted: read-out: IC50 Bacteroides fragilis.
The next assay deals with A. act and/or P. gin. To be noted: background summary; cited from earlier work.
For the next assay, the system named is P. gingivalis. Briefly: bone loss after oral colonization with P. gingivalis in mice, systemic administration. Format: in vivo, BALB/c mice. How it is done:
An animal model for testing the antimicrobial activity of the invention against P. gingivalis was conducted by inducing oral colonization of the microbe in BALB/c mice. Drug (2-methylphenazine-5,10-dioxide or Tetracycline) or control (2.5% cyclodextran) was administered intraperitoneally once each day for 25 days (2-methylphenazine-5,10-dioxide) or 40 days (Tetracycline). On the day following the last dose administration, the rear molars of the mice were swabbed and the swabs incubated in a growth medium to assess the presence of P. gingivalis. Mice were then sacrificed and jaw bones harvested for evaluation of bone loss.

For assay [7], the system named is anaerobic bacterial species. Briefly: anaerobic liquid culture growth inhibition, whole panel. To be noted: all species of Table 4; read-out: susceptibilities (IC50) of the various anaerobic species. Format: cell-based. The protocol: The concentrations of the various preferred substituted phenazine-5,10-dioxide compounds necessary to inhibit growth by 50% (IC50 values) were determined for a variety of anaerobic bacterial species. Compounds were individually diluted into liquid growth media, which along with suspensions of bacterial monocultures were added to the wells of 96-well plates. Cultures were incubated anaerobically overnight, and growth was assessed by measuring optical density at 650 nm. IC50 values were determined as the compound concentration producing a turbidity reading equal to 50% of the maximum. Again, results with Tetracycline are shown for comparison.

Assay [8] concerns purified collagenase from P. gingivalis. In words: anti-collagenase activity, 3H-collagen hydrolysis. In kind it is biochemical. To be noted: for % Inhibition of collagenase: 24 h at 25° C. The protocol: Collagenase activity in the presence of the preferred compound 2-aminophenazine-5,10-dioxide and in the presence of Tetracycline were measured by incubating ^3 H-collagen with purified collagenase from P. gingivalis using increasing drag concentrations. After 24 h at 25° C., unhydrolyzed collagen fibers were removed from the mixture by centrifugation, and the specific activity of ^3 H in the supernatant quantified as a measure of hydrolyzed collagen. Percent inhibition was determined by subtracting the value in the presence of test compound from the control value, then dividing this quantity by the control value [(control-compound)/control×100].

Where [9] appears, read: Porphyromonas gingivalis, 2561, anaerobic overnight, OD 650 nm, read-out: IC50 Porphyromonas gingivalis 2561.
Setting [10] is: RB22D1, anaerobic overnight, OD 650 nm, read-out: IC50 Porphyromonas gingivalis RB-22D-1.
Setting [11] is: MIC on a molar basis, read-out: P. gingivalis MIC.
Where [12] appears, read: complete inhibition of growth, 1 week anaerobic, 37° C., read-out: P. gingivalis MIC.

A word on the IC50: it is the midpoint of a concentration-inhibition curve. Consider `[O-][n+]1c2ccccc2[n+]([O-])c2cc(O)c(O)cc21` [2,3-dihydroxyphenazine-5,10-dioxide], for which the IC50 was above 10 µg/mL in assay [1] (anaerobic overnight, OD 650 nm); 5 µg/mL (≈ 20.5 µM) in [2] (setting [9]); above 10 µg/mL in the assay with Clostridium perfringens; above 10 µg/mL with Fusobacterium nucleatum (anaerobic overnight, OD 650 nm); above 10 µg/mL in assay [3] (anaerobic overnight, OD 650 nm); above 10 µg/mL in the assay with Bacteroides levii (anaerobic overnight, OD 650 nm). In addition, the IC50 in assay [6] (setting [10]) is 2 µg/mL (≈ 8.19 µM); in the assay with Bacteroides fragilis (anaerobic overnight, OD 650 nm), above 10 µg/mL. The “antimicrobial activity against P. gingivalis” value in [4] is “inactive”. Besides, the “P. gingivalis MIC (μM)” value in assay [4] (MIC on a molar basis) is “inactive”. Also, the “P. gingivalis MIC” value in assay [4] (complete inhibition of growth, 1 week anaerobic, 37° C.) is “inactive”. Moreover, the “E. coli Clear Zone” value in assay [5] was “inactive”.

`COc1ccc2c(c1)[n+]([O-])c1ccc(N)cc1[n+]2[O-]` [2-amino-7-methoxyphenazine-5,10-dioxide, 2-amino,7-methoxyphenazine-5,10-dioxide]: the figures for the IC50 in [2] (setting [9]) and in [6] (setting [10]) were 0.015 µg/mL (≈ 0.0583 µM) and 0.08 µg/mL (≈ 0.311 µM), respectively.

As usually defined, the MIC is the lowest concentration found to suppress growth. `[O-][n+]1c2ccccc2[n+]([O-])c2c3cccnc3c(O)cc21` [2-hydroxy-3,4-iminopropylphenazine-5,10-dioxide]: the half-inhibitory concentration (IC50) was 0.1 µg/mL (≈ 0.358 µM) in assay [1] (anaerobic overnight, OD 650 nm); 0.08 µg/mL (≈ 0.286 µM) in [2] (setting [9]); 0.1 µg/mL (≈ 0.358 µM) in the assay on Clostridium perfringens; above 10 µg/mL with Fusobacterium nucleatum (anaerobic overnight, OD 650 nm); 6.5 µg/mL (≈ 23.3 µM) in [3] (anaerobic overnight, OD 650 nm); 2 µg/mL (≈ 7.16 µM) in the assay on Bacteroides levii (anaerobic overnight, OD 650 nm). Also, the IC50 in assay [6] (setting [10]) worked out at 0.18 µg/mL (≈ 0.645 µM); with Bacteroides fragilis (anaerobic overnight, OD 650 nm), 1 µg/mL (≈ 3.58 µM). The MIC in assay [4] (setting [11]) came to 0.112 µM; in assay [4] (setting [12]) it was 0.031 µg/mL. The zone of inhibition at 1000 µg/mL in assay [5] was 17 mm.

For the compound `[O-][n+]1c2ccccc2[n+]([O-])c2cc(O)ccc21` [2-hydroxyphenazine-5,10-dioxide], the IC50 is 0.45 µg/mL (≈ 1.97 µM) in [1] (anaerobic overnight, OD 650 nm); 0.62 µg/mL (≈ 2.72 µM) in assay [2] (setting [9]); 1 µg/mL (≈ 4.38 µM) with Clostridium perfringens; above 10 µg/mL in the assay with Fusobacterium nucleatum (anaerobic overnight, OD 650 nm); 0.45 µg/mL (≈ 1.97 µM) in assay [3] (anaerobic overnight, OD 650 nm); 0.2 µg/mL (≈ 0.876 µM) in the assay on Bacteroides levii (anaerobic overnight, OD 650 nm). Moreover, the IC50 in assay [6] (setting [10]) stood at 0.22 µg/mL (≈ 0.964 µM); in the assay with Bacteroides fragilis (anaerobic overnight, OD 650 nm), 5 µg/mL (≈ 21.9 µM). Further, the MIC in assay [4] (setting [11]) was determined as 0.07 µM; in assay [4] (setting [12]), 0.016 µg/mL. Moreover, the “concentration range of activity against P. gingivalis” value in [4] (molar basis) is reported as “nanomolar concentration range”. In addition, the zone of inhibition at 1000 µg/mL in assay [5] turned out to be 15 mm.

`CC1(C)S[C@@H]2[C@H](NC(=O)[C@H](N)c3ccc(O)cc3)C(=O)N2[C@H]1C(=O)O` [Amoxicillin]: the “Activity against A. act and/or P. gin” value in the assay with A. act and/or P. gin is on record as “ineffective”.

Turning to `Cc1ncc([N+](=O)[O-])n1CCO` [Metronidazole], the “Activity against A. act and/or P. gin” value in the assay with A. act and/or P. gin was “ineffective”.

Turning to `CC1(C)S[C@@H]2[C@H](NC(=O)Cc3ccccc3)C(=O)N2[C@H]1C(=O)O` [Penicillin G], in the assay on A. act and/or P. gin, the “Activity against A. act and/or P. gin” value was “ineffective”.

In the case of `CN(C)[C@@H]1C(O)=C(C(N)=O)C(=O)[C@@]2(O)C(O)=C3C(=O)c4c(O)cccc4[C@@](C)(O)[C@H]3C[C@@H]12` [Tetracycline, reference compound], the IC50 in assay [1] is 0.03 µg/mL (≈ 0.0675 µM); in assay [2] (Porphyromonas gingivalis, 2561, read-out: IC50 Porphyromonas gingivalis 2561), 0.02 µg/mL (≈ 0.045 µM); in the assay on Clostridium perfringens it was 0.06 µg/mL (≈ 0.135 µM); in the assay on Fusobacterium nucleatum it was 0.16 µg/mL (≈ 0.36 µM); in [3], 0.03 µg/mL (≈ 0.0675 µM); in assay [7], at most 0.1 µg/mL. The IC50 was 0.1 µg/mL (≈ 0.225 µM) in the assay on Bacteroides levii; 0.06 µg/mL (≈ 0.135 µM) in assay [6] (RB22D1, read-out: IC50 Porphyromonas gingivalis RB-22D-1); 0.1 µg/mL (≈ 0.225 µM) in the assay with Bacteroides fragilis. The “Bone Loss (BLU) Average ± SD” value with P. gingivalis (Bacterial Infection, 5 mg/kg intraperitoneally once each day × 40 d, 0.33 mm = 1 BLU) is on record as 7.21 ± 0.73 BLU. The “effect of treatment on bone loss” value in the assay on P. gingivalis (infected mice, IP daily, 25 d (2-methylphenazine-5,10-dioxide) or 40 d (Tetracycline)) was “did not effect the bone loss”. For the same compound, the MIC in assay [4] (read-out: P. gingivalis MIC) turned out to be 0.5 µg/mL; in [4] (read-out: P. gingivalis MIC (μM)), 1.13 µM. Further, in assay [5], the zone of inhibition at 1000 µg/mL came to 10 mm. Moreover, the entries for the “% Inhibition of collagenase” value in assay [8] (1 μg/ml), in [8] (10 μg/ml) and in assay [8] (100 μg/ml) were 7.6%, 31% and 68%, respectively. Besides, the “anti-collagenase IC50” value in assay [8] (estimated from Table 5) was “about 56 μg/ml”.

Turning to `[O-][n+]1c2ccccc2[n+]([O-])c2ccccc21` [phenazine-5,10-dioxide], the IC50 stood at 0.2 µg/mL (≈ 0.942 µM) in assay [1] (anaerobic overnight, OD 650 nm); 1 µg/mL (≈ 4.71 µM) in the assay with Clostridium perfringens; 3.5 µg/mL (≈ 16.5 µM) in the assay on Fusobacterium nucleatum (anaerobic overnight, OD 650 nm); 0.45 µg/mL (≈ 2.12 µM) in assay [3] (anaerobic overnight, OD 650 nm); 2.5 µg/mL (≈ 11.8 µM) with Bacteroides levii (anaerobic overnight, OD 650 nm); 3 µg/mL (≈ 14.1 µM) in the assay with Bacteroides fragilis (anaerobic overnight, OD 650 nm). Besides, the results for the MIC in assay [4] (setting [11]) and in assay [4] (setting [12]) were 0.296 µM and 0.063 µg/mL, respectively. In assay [5], the zone of inhibition at 1000 µg/mL turned out to be 19 mm.
